21 compounds from patent US10766903B2 (ALMAC DISCOVERY LIMITED, priority 2016, dated 2020) can be followed below.

As usually defined, the IC50 is the concentration that gives 50% inhibition.

One test deals with USP7 (Homo sapiens (Human), UniProt Q93009). Kind of test: USP7 fluorescence polarisation (FP) biochemical assay, ubiquitin-Lys-TAMRA substrate. Conditions: Table 4, biochemical assay; average of at least duplicate experiments; read-out: USP7 IC50. Summed up: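 Full-length His6-USP7 (2.5 nM) incubated ± inhibitor (8-point dilutions, 200 to 0.1 μM before addition) in 50 mM HEPES pH 7.2, 150 mM NaCl, 0.5 mM EDTA, 5 mM DTT, 0.05% BSA, 0.05% CHAPS. Ubiquitin-Lys-TAMRA cleavage followed by FP (ex 530/em 575 nm) every 15 min for 1.5 h; normalised to no-compound control.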
Sequence of USP7 (Q93009 whole entry): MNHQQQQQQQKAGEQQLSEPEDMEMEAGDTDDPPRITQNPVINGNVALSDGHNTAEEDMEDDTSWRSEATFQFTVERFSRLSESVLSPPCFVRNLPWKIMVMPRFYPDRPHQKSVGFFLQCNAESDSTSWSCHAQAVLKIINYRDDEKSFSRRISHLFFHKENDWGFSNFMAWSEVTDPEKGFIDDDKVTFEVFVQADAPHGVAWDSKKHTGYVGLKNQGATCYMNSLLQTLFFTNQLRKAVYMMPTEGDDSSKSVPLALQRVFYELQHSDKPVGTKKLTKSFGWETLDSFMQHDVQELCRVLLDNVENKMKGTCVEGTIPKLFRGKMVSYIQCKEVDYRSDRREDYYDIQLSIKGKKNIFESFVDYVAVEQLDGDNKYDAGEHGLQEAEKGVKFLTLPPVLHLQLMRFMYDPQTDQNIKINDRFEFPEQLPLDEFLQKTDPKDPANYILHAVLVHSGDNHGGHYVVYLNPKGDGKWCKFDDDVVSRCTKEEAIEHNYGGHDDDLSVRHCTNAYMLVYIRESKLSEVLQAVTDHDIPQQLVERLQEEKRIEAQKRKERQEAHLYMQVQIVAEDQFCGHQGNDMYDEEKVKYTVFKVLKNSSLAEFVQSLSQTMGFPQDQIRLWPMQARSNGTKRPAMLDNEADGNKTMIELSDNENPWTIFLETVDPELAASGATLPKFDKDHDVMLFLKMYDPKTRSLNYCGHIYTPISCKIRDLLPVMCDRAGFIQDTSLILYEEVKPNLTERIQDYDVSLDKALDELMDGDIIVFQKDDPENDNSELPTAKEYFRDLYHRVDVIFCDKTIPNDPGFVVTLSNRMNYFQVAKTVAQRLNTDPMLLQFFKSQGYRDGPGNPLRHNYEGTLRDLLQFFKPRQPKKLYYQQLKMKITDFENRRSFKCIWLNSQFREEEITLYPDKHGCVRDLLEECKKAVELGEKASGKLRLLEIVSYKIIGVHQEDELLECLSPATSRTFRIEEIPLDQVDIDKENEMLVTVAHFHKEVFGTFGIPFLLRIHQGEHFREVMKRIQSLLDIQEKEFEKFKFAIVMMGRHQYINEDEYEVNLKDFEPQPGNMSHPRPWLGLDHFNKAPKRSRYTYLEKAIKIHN
Background: Fluorescence polarisation rises when a labelled molecule tumbles more slowly, as on binding a larger partner.
In the case of `Cn1nc2c(=O)n(CC3(O)CCN(C(=O)C[C@H](c4ccccc4)C(F)(F)F)CC3)cnc2c1-c1ccc(CN)c(C(F)(F)F)c1` [Example 123, (R)-3-(4-(Aminomethyl)-3-(trifluoromethyl)phenyl)-6-((4-hydroxy-1-(4,4,4-trifluoro-3-phenylbutanoyl)piperidin-4-yl)methyl)-2-methyl-2H-pyrazolo[4,3-d]pyrimidin-7(6H)-one], the IC50 was under 250 nM.

On to `C[C@H](CC(=O)N1CCC(O)(Cn2cnc(NC[C@H](C)N3CCCC3)cc2=O)CC1)c1ccccc1` [Example 59, 3-((4-Hydroxy-1-((R)-3-phenylbutanoyl)piperidin-4-yl)methyl)-6-(((S)-2-(pyrrolidin-1-yl)propyl)amino)pyrimidin-4(3H)-one, Formic Acid], for which the IC50 is under 250 nM.

On to `C[C@H](CC(=O)N1CCC(O)(Cc2cnc(-c3ccccc3)cn2)CC1)c1ccccc1` [Example 115, (R)-1-(4-Hydroxy-4-((5-phenylpyrazin-2-yl)methyl)piperidin-1-yl)-3-phenylbutan-1-one], for which the IC50 was in the range of 1000 to 200000 nM.

With `Cn1cc(C(=O)N2CCC(O)(Cn3cnc4c(cc(Cl)n4-c4cccc(C5CC5)c4)c3=O)CC2)cn1` [Example 219, 6-Chloro-7-(3-cyclopropylphenyl)-3-((4-hydroxy-1-(1-methyl-1H-pyrazole-4-carbonyl)piperidin-4-yl)methyl)-3H-pyrrolo[2,3-d]pyrimidin-4(7H)-one], the IC50 is under 250 nM.

Regarding `Cn1nc2c(=O)n(CC3(O)CCN(C(=O)c4cnco4)CC3)cnc2c1-c1ccccc1` [Example 192, 6-((4-Hydroxy-1-(oxazole-5-carbonyl)piperidin-4-yl)methyl)-2-methyl-3-phenyl-2H-pyrazolo[4,3-d]pyrimidin-7(6H)-one], the IC50 lay in the range of 1000 to 200000 nM.

With `Cc1nc2c(=O)n(CC3(O)CCN(C(=O)C[C@H](c4ccccc4)C(F)(F)F)CC3)cnc2n1-c1ccc(CN)cc1` [Example 78, (R)-9-(4-(Aminomethyl)phenyl)-1-((4-hydroxy-1-(4,4,4-trifluoro-3-phenylbutanoyl)piperidin-4-yl)methyl)-8-methyl-1H-purin-6(9H)-one], the IC50 was under 250 nM.

With `Cn1nc2c(=O)n(CC3(O)CCN(C(=O)C[C@H](c4ccccc4)C(F)(F)F)CC3)cnc2c1-c1ccc(CN)c(F)c1` [Example 82, (R)-3-(4-(Aminomethyl)-3-fluorophenyl)-6-((4-hydroxy-1-(4,4,4-trifluoro-3-phenylbutanoyl)piperidin-4-yl)methyl)-2-methyl-2H-pyrazolo[4,3-d]pyrimidin-7(6H)-one], the IC50 is under 250 nM.

As for `Cn1c(Cl)cc2c(=O)n(CC3(O)CCN(C(=O)C4(C)CC4)CC3)cnc21` [Example 209, 6-Chloro-3-((4-hydroxy-1-(1-methylcyclopropanecarbonyl)piperidin-4-yl)methyl)-7-methyl-3H-pyrrolo[2,3-d]pyrimidin-4(7H)-one], the half-maximal inhibitory concentration (IC50) lay in the range of 1000 to 200000 nM.

For the compound `CC(=O)NCCNc1cc(=O)n(CC2(O)CCN(C(=O)C[C@@H](C)c3ccccc3)CC2)cn1` [Example 143, (R)-N-(2-((1-((4-hydroxy-1-(3-phenylbutanoyl)piperidin-4-yl)methyl)-6-oxo-1,6-dihydropyrimidin-4-yl)amino)ethyl)acetamide], the half-inhibitory concentration (IC50) fell in the range of 1000 to 200000 nM.

As to `C[C@H](CC(=O)N1CCC(O)(Cn2cnc(N3CCC(N4CCOCC4)C3)cc2=O)CC1)c1ccccc1` (stereo partly drawn) [Example 149, 3-((4-hydroxy-1-((R)-3-phenylbutanoyl)piperidin-4-yl)methyl)-6-(3-morpholinopyrrolidin-1-yl)pyrimidin-4(3H)-one], the IC50 lay within 1000 to 200000 nM.

With `NCc1ccc(-n2cnc3c(=O)n(CC4(O)CCN(C(=O)C[C@H](c5ccccc5)C(F)(F)F)CC4)cnc32)cc1` [Example 77, (R)-9-(4-(Aminomethyl)phenyl)-1-((4-hydroxy-1-(4,4,4-trifluoro-3-phenylbutanoyl)piperidin-4-yl)methyl)-1H-purin-6(9H)-one], the IC50 is under 250 nM.

With `COc1cc(-n2c(Cl)cc3c(=O)n(CC4(O)CCN(C(=O)C5(C)CC5)CC4)cnc32)ccc1F` [Example 207, 6-Chloro-7-(4-fluoro-3-methoxyphenyl)-3-((4-hydroxy-1-(1-methylcyclopropanecarbonyl)piperidin-4-yl)methyl)-3H-pyrrolo[2,3-d]pyrimidin-4(7H)-one], the IC50 lay within 250 to 999 nM.

Turning to `C[C@H](CC(=O)N1CCC(O)(Cn2cnc(N3CCN(C)C(=O)C3)cc2=O)CC1)c1ccccc1` [Example 168, (R)-3-((4-hydroxy-1-(3-phenylbutanoyl)piperidin-4-yl)methyl)-6-(4-methyl-3-oxopiperazin-1-yl)pyrimidin-4(3H)-one], the IC50 was 1000 to 200000 nM.

As to `CC(C)c1c2c(nn1C)C(=O)N(CC1(O)CCN(C(=O)C[C@@H](C)c3ccccc3)CC1)CN2` [Example 34, (R)-6-((4-Hydroxy-1-(3-phenylbutanoyl)piperidin-4-yl)methyl)-3-isopropyl-2-methyl-5,6-dihydro-2H-pyrazolo[4,3-d]pyrimidin-7(4H)-one], the IC50 was 1000 to 200000 nM.

As to `C[C@H]1CCN(CCNc2cc(=O)n(CC3(O)CCN(C(=O)C[C@@H](C)c4ccccc4)CC3)cn2)C1` [Example 71, 3-((4-Hydroxy-1-((R)-3-phenylbutanoyl)piperidin-4-yl)methyl)-6-((2-((S)-3-methylpyrrolidin-1-yl)ethyl)amino)pyrimidin-4(3H)-one, Formic Acid], the IC50 is under 250 nM.

For the compound `C[C@H](CC(=O)N1CCC(O)(Cn2cnc(NCCNc3nccc(C(F)(F)F)n3)cc2=O)CC1)c1ccccc1` [Example 145, (R)-3-((4-hydroxy-1-(3-phenylbutanoyl)piperidin-4-yl)methyl)-6-((2-((4-(trifluoromethyl)pyrimidin-2-yl)amino)ethyl)amino)pyrimidin-4(3H)-one], the IC50 lay within 1000 to 200000 nM.

On to `C[C@H](CC(=O)N1CCC(O)(Cn2cnc(N3CCC4(CCOC4)C3)cc2=O)CC1)c1ccccc1` (stereo partly drawn) [Example 152, 3-((4-hydroxy-1-((R)-3-phenylbutanoyl)piperidin-4-yl)methyl)-6-(2-oxa-7-azaspiro[4.4]nonan-7-yl)pyrimidin-4(3H)-one], for which the IC50 was in the range of 1000 to 200000 nM.

As for `CC(=O)N1CCC(O)(Cn2cnc(NCCN3CCCC3)cc2=O)CC1` [Example 132, 3-((1-Acetyl-4-hydroxypiperidin-4-yl)methyl)-6-((2-(pyrrolidin-1-yl)ethyl)amino)pyrimidin-4(3H)-one], the IC50 is 1000 to 200000 nM.

The test is the same for the next values; noted with them: USP7 IC50, Table 4, biochemical assay; average of at least duplicate experiments.
As for `C[C@H](CC(=O)N1CCC(O)(Cn2cnc(-c3ccn[nH]3)cc2=O)CC1)c1ccccc1` [Example 3, (R)-3-((4-Hydroxy-1-(3-phenylbutanoyl)piperidin-4-yl)methyl)-6-(1H-pyrazol-5-yl)pyrimidin-4(3H)-one], the concentration for half-maximal inhibition (IC50) lay in the range of 250 to 999 nM.

With `C[C@H](CC(=O)N1CCC(O)(Cn2cnc(N[C@@H](C)CN3CCCC3)cc2=O)CC1)c1ccccc1` [Example 61, 3-((4-Hydroxy-1-((R)-3-phenylbutanoyl)piperidin-4-yl)methyl)-6-(((S)-1-(pyrrolidin-1-yl)propan-2-yl)amino)pyrimidin-4(3H)-one, Formic Acid], the IC50 is 250 to 999 nM.

With `O=C(C[C@H](c1ccccc1)C(F)F)N1CCC(O)(Cn2cnc(NCCN3CCCC3)cc2=O)CC1` [Example 89, (R)-3-((1-(4,4-Difluoro-3-phenylbutanoyl)-4-hydroxypiperidin-4-yl)methyl)-6-((2-(pyrrolidin-1-yl)ethyl)amino)pyrimidin-4(3H)-one, Formic Acid], the half-maximal inhibitory concentration (IC50) lay within 250 to 999 nM.
